The values below come from patent US8999957B2, “Heterocyclic compounds as ERK inhibitors” (Merck Sharp & Dohme Corp., priority 2010, dated 2015).

pIC50: −log10 of the molar value.

Chain of fully phosphorylated, mouse aERK2 enzyme (P63085 whole entry): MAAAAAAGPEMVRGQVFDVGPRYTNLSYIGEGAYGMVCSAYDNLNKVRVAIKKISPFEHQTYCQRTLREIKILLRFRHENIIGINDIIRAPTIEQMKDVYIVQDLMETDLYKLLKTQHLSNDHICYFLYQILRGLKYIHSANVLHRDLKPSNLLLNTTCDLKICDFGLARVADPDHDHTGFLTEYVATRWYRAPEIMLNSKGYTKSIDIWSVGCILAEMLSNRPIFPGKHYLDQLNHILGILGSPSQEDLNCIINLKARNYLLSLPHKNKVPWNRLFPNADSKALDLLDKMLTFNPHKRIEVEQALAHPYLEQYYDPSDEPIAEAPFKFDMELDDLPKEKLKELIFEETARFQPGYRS

The first assay concerns the target fully phosphorylated, mouse aERK2 enzyme (Mus musculus (Mouse), UniProt P63085). Description: Active ERK2 (aERK) IMAP-FP assay, condition 2. Format: biochemical. The note with it: aERK assay condition 2, 30 uM ATP; read-out: aERK IC50. The essentials: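 Phosphorylation by fully phosphorylated mouse ERK2 ran 40-45 min, then quenched with IMAP beads (1:1000) in binding buffer; fluorescence polarization read after 30 min binding equilibration.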
Broadly, the pIC50 is the IC50 on a negative log10 scale, so that one unit is a factor of ten. For the compound `COc1cccc(F)c1CN1C[C@H](NC(=O)c2ccc3[nH]nc(-c4ccnc(C)c4)c3c2)CC[C@H]1C(=O)Nc1cccc(F)c1` [N-{(3R,6S)-1-(2-fluoro-6-methoxybenzyl)-6-[(3-fluorophenyl)carbamoyl]piperidin-3-yl}-3-(2-methylpyridin-4-yl)-1H-indazole-5-carboxamide], the pIC50 is 7.82. As to `COc1cccc(F)c1CN1C[C@H](NC(=O)c2ccc3[nH]nc(-c4ccnc(C)c4)c3c2)CC[C@H]1C(=O)NCC1CC1` [N-[(3R,6S)-6-[(cyclopropylmethyl)carbamoyl]-1-(2-fluoro-6-methoxybenzyl)piperidin-3-yl]-3-(2-methylpyridin-4-yl)-1H-indazole-5-carboxamide], the pIC50 was 8.31. On to `NC(=O)C(c1ccccc1F)N1CCC[C@@H](NC(=O)c2ccc3[nH]nc(-c4ccncc4)c3c2)C1` (single isomer, unassigned) [N-((R)-1-((R or S)-2-amino-1-(2-fluorophenyl)-2-oxoethyl)-piperidin-3-yl)-3-(pyridin-4-yl)-1H-indazole-5-carboxamide], for which the pIC50 was 7.14. In the case of `COc1cccc(F)c1CN1C[C@H](NC(=O)c2ccc3[nH]nc(-c4ccnc(C)c4)c3c2)CC[C@H]1C(=O)NC[C@H]1CC[C@H](O)C1` [N-[(3R,6S)-1-(2-fluoro-6-methoxybenzyl)-6-({[(1S,3S)-3-hydroxycyclopentyl]methyl}carbamoyl)piperidin-3-yl]-3-(2-methylpyridin-4-yl)-1H-indazole-5-carboxamide], the negative-log IC50 (pIC50) is 8.89. On the same count and under the same terms, the value for `COc1cccc(F)c1CN1C[C@H](NC(=O)c2ccc3[nH]nc(-c4ccnc(C)c4)c3c2)CC[C@H]1C(=O)Nc1ccc(F)cc1` [N-{(3R,6S)-1-(2-fluoro-6-methoxybenzyl)-6-[(4-fluorophenyl)carbamoyl]piperidin-3-yl}-3-(2-methylpyridin-4-yl)-1H-indazole-5-carboxamide] was 7.63; that for `COc1cccc(F)c1CN1C[C@H](NC(=O)c2ccc3[nH]nc(-c4ccnc(C)c4)c3c2)CC[C@H]1C(=O)NOCC1CC1` [N-[(3R,6S)-6-[(cyclopropylmethoxy)carbamoyl]-1-(2-fluoro-6-methoxybenzyl)piperidin-3-yl]-3-(2-methylpyridin-4-yl)-1H-indazole-5-carboxamide] was 9.22. As for `COc1cccc(F)c1CN1C[C@H](NC(=O)c2ccc3[nH]nc(-c4ccnc(C)c4)c3c2)CC[C@H]1C(=O)Nc1ccncc1` [N-[(3R,6S)-1-(2-fluoro-6-methoxybenzyl)-6-(pyridin-4-ylcarbamoyl)piperidin-3-yl]-3-(2-methylpyridin-4-yl)-1H-indazole-5-carboxamide], the pIC50 was 8.52. Turning to `CNC(=O)C(c1ccccc1F)N1CCC[C@@H](NC(=O)c2ccc3[nH]nc(-c4ccncc4)c3c2)C1` (single isomer, unassigned) [drawing 502, N-((R)-1-((S or R)-1-(2-fluorophenyl)-2-(methyl-amino)-2-oxoethyl)piperidin-3-yl)-3-(pyridin-4-yl)-1H-indazole-5-carboxamide], the pIC50 was 8.34.

The same assay, now with this note: active ERK2; read-out: aErk2 Ic50.
For `Cc1cc(-c2n[nH]c3ccc(C(=O)N[C@@H]4CC[C@@H](C(=O)N(C)C)N(Cc5c(F)cccc5F)C4)cc23)ccn1` [N-[(3R,6S)-1-(2,6-difluorobenzyl)-6-(dimethylcarbamoyl)piperidin-3-yl]-3-(2-methylpyridin-4-yl)-1H-indazole-5-carboxamide], the negative logarithm of the IC50 (pIC50) was 7.13. Regarding `[2H]C([2H])([2H])Oc1cccc(F)c1CN1C[C@H](NC(=O)c2ccc3[nH]nc(-c4ccc5nc(C)sc5c4)c3c2)CC[C@H]1C(N)=O`, the negative logarithm of the IC50 (pIC50) is 8.47. Still for that read-out and setting: the value for `COc1cccc(F)c1CN1C[C@H](NC(=O)c2ccc3[nH]nc(-c4ccnc(C)c4)c3c2)CC[C@H]1C(=O)N1CCC(Cl)CC1` [N-[(3R,6S)-6-[(4-chloropiperidin-1-yl)carbonyl]-1-(2-fluoro-6-methoxybenzyl)-piperidin-3-yl]-3-(2-methylpyridin-4-yl)-1H-indazole-5-carboxamide] was 7.32; that for `CCN(CC)C(=O)[C@@H]1CC[C@@H](NC(=O)c2ccc3[nH]nc(-c4ccncc4)c3c2)CN1Cc1c(F)cccc1OC` [N-[(3R,6S)-6-(diethylcarbamoyl)-1-(2-fluoro-6-methoxybenzyl)piperidin-3-yl]-3-pyridin-4-yl-1H-indazole-5-carboxamide] was 7.74. Still for that read-out and setting: the value for `COc1cccc(F)c1CN1C[C@H](NC(=O)c2ccc3[nH]nc(-c4ccnc(C)c4)c3c2)CC[C@H]1C(=O)NC1CCCC1` was 6.98; that for `COc1cccc(F)c1CN1C[C@H](NC(=O)c2ccc3[nH]nc(-c4ccnc(C)c4)c3c2)CC[C@H]1C(=O)N(C)OC` [N-{(3R,6S)-1-(2-fluoro-6-methoxybenzyl)-6-[methoxy(methyl)carbamoyl]piperidin-3-yl}-3-(2-methylpyridin-4-yl)-1H-indazole-5-carboxamide] was 7.95. Still for that read-out and setting: in the case of `Cc1cc(-c2n[nH]c3ccc(C(=O)N[C@@H]4CC[C@@H](C(=O)Nc5nccs5)N(CCc5ccccc5)C4)cc23)ccn1` [3-(2-methylpyridin-4-yl)-N-[(3R,6S)-1-(2-phenylethyl)-6-(1,3-thiazol-2-ylcarbamoyl)-piperidin-3-yl)-1H-indazole-5-carboxamide] it was 6.88; in that of `CCN(CC)C(=O)[C@@H]1CC[C@@H](NC(=O)c2ccc3[nH]nc(-c4ccnc(C)c4)c3c2)CN1Cc1cccs1`, 7.55; in that of `COc1cccc(F)c1CN1C[C@H](NC(=O)c2ccc3[nH]nc(-c4ccnc(C)c4)c3c2)CC[C@H]1C(=O)N1CCCO1` [N-[(3R,6S)-1-(2-fluoro-6-methoxybenzyl)-6-(isoxazolidin-2-ylcarbonyl)piperidin-3-yl]-3-(2-methylpyridin-4-yl)-1H-indazole-5-carboxamide], 7.98. With `COc1cccc(F)c1CN1C[C@H](NC(=O)c2ccc3[nH]nc(-c4ccnc(C)c4)c3c2)CC[C@H]1C(=O)NCC(F)(F)F` [N-{(3R,6S)-1-(2-fluoro-6-methoxybenzyl)-6-[(2,2,2-trifluoroethyl)carbamoyl]piperidin-3-yl}-3-(2-methylpyridin-4-yl)-1H-indazole-5-carboxamide], the pIC50 was 7.33.

Regarding `COc1cccc(F)c1CN1C[C@H](NC(=O)c2ccc3[nH]nc(-c4ccnc(C)c4)c3c2)CC[C@H]1C(=O)NCCCCl` [N-[(3R,6S)-6-[(3-chloropropyl)carbamoyl]-1-(2-fluoro-6-methoxybenzyl)piperidin-3-yl]-3-(2-methylpyridin-4-yl)-1H-indazole-5-carboxamide], the pIC50 is 7.93. Consider `CCOC(=O)N1CCN(C(=O)[C@@H]2CC[C@@H](NC(=O)c3ccc4[nH]nc(-c5ccnc(C)c5)c4c3)CN2Cc2c(F)cccc2OC)CC1` [ethyl 4-{[(2S,5R)-1-(2-fluoro-6-methoxy-benzyl)-5-({[3-(2-methylpyridin-4-yl)-1H-indazol-5-yl]carbonyl}amino)piperidin-2-yl]carbonyl}piperazine-1-carboxylate], for which the pIC50 was 7.69. Take `O=C(N[C@@H]1CC[C@@H](C(=O)NCc2ccccc2)N(Cc2ccccc2)C1)c1ccc2[nH]nc(-c3ccncc3)c2c1` [N-[(3R,6S)-1-benzyl-6-(benzylcarbamoyl)piperidin-3-yl]-3-pyridin-4-yl-1H-indazole-5-carboxamide]: the pIC50 was 7.32. `CCN(CC)C(=O)[C@@H]1CC[C@@H](NC(=O)c2ccc3[nH]nc(-c4ccnc(C)c4)c3c2)CN1Cc1c(F)cccc1OC` [N-[(3R,6S)-6-(diethylcarbamoyl)-1-(2-fluoro-6-methoxybenzyl)piperidin-3-yl]-3-(2-methylpyridin-4-yl)-1H-indazole-5-carboxamide]: the pIC50 was 7.79.

As for `CNC(=O)[C@@H]1CC[C@@H](NC(=O)c2ccc3[nH]nc(-c4ccnc(C)c4)c3c2)CN1Cc1c(F)cccc1OC` [N-[(3R,6S)-1-(2-fluoro-6-methoxybenzyl)-6-(methylcarbamoyl)piperidin-3-yl]-3-(2-methylpyridin-4-yl)-1H-indazole-5-carboxamide], the negative logarithm of the IC50 (pIC50) was 8.57. For the compound `COc1cccc(F)c1CN1C[C@H](NC(=O)c2ccc3[nH]nc(-c4ccnc(C)c4)c3c2)CC[C@H]1C(=O)N1CCN(C(=O)OC2CCCC2)CC1` [cyclopentyl 4-{[(2S,5R)-1-(2-fluoro-6-methoxybenzyl)-5-({[3-(2-methylpyridin-4-yl)-1H-indazol-5-yl]carbonyl}amino)piperidin-2-yl]carbonyl}piperazine-1-carboxylate], the pIC50 was 7.51.

On to `COc1cccc(F)c1CN1C[C@H](NC(=O)c2ccc3[nH]nc(-c4ccnc(C)c4)c3c2)CC[C@H]1C(=O)N1CCC1` [N-[(3R,6S)-6-(azetidin-1-ylcarbonyl)-1-(2-fluoro-6-methoxybenzyl)piperidin-3-yl]-3-(2-methylpyridin-4-yl)-1H-indazole-5-carboxamide], for which the pIC50 was 7.46.

With `COc1cccc(F)c1CN1C[C@H](NC(=O)c2ccc3[nH]nc(-c4ccc5nc(C)sc5c4)c3c2)CC[C@H]1C(=O)N1CC(F)(F)C1` [N-[(3R,6S)-6-[(3,3-difluoroazetidin-1-yl)carbonyl]-1-(2-fluoro-6-methoxybenzyl)-piperidin-3-yl]-3-(2-methyl-1,3-benzothiazol-6-yl)-1H-indazole-5-carboxamide], the pIC50 is 7.32. For `COc1cccc(F)c1CN1C[C@H](NC(=O)c2ccc3[nH]nc(-c4ccncc4)c3c2)CC[C@H]1C(N)=O` [N-[(3R,6S)-6-carbamoyl-1-(2-fluoro-6-methoxybenzyl)piperidin-3-yl]-3-pyridin-4-yl-1H-indazole-5-carboxamide], the pIC50 is 8.77. Consider `COc1cccc(F)c1CN1C[C@H](NC(=O)c2ccc3[nH]nc(-c4ccnc(C)c4)c3c2)CC[C@H]1C(=O)NN` [N-[(3R,6S)-1-(2-fluoro-6-methoxybenzyl)-6-(hydrazinocarbonyl)piperidin-3-yl]-3-(2-methylpyridin-4-yl)-1H-indazole-5-carboxamide], for which the pIC50 is 9.00. `COc1cccc(F)c1CN1C[C@H](NC(=O)c2ccc3[nH]nc(-c4ccc5nc(C)sc5c4)c3c2)CC[C@H]1C(N)=O` [N-[(3R,6S)-6-carbamoyl-1-(2-fluoro-6-methoxybenzyl)piperidin-3-yl]-3-(2-methyl-1,3-benzothiazaol-6-yl)-1H-indazole-5-carboxamide]: the pIC50 was 8.44.
